Experimental data: patent publication US20200369626A1 (Washington University, priority 2019, published 2020)

Molecular target: T1, S1PR2 (Homo sapiens, UniProt O95136)
T1 construct: purchased
Test: competitive [^32P]S1P binding assay on cell membranes, S1PR2
Conditions: Table 5; read-out: IC50 S1PR2

T1 sequence (O95136 whole entry): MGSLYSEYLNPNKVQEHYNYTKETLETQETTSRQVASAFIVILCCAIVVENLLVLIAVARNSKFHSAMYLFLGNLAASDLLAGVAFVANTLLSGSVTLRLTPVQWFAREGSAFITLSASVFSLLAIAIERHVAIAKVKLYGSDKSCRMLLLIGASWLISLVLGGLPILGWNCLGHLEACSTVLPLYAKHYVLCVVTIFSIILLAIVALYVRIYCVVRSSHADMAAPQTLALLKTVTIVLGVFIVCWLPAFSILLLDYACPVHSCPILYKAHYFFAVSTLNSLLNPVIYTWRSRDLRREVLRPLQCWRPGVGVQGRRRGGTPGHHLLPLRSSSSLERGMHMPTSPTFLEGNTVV

| Structure (SMILES) | IC50 [nM] |
| --- | --- |
| CC(C)CC1(O)CCN(c2nc3cc(Oc4ccc(F)cc4)cc([N+](=O)[O-])c3o2)CC1 [TZ57-045] | > 1000 |
| CS(=O)(=O)c1ccc(Oc2nc(NC(=O)N3CCc4ccccc4C3)nc(C(F)(F)F)n2)cc1 [TZ57-047] | > 1000 |
| CCC(CC)CC1(OC)CCN(C(=O)Nc2cc(Oc3ccc(F)cc3)cc(Oc3ccc(S(C)(=O)=O)cc3)c2)CC1 [TZ57-054] | > 1000 |
| CS(=O)(=O)c1ccc(Oc2cc(NC(=O)N(CCO)C3CCCCC3)cc(Oc3ccc(F)cc3)c2)cc1 [TZ57-062] | > 1000 |
| CC(C)C(=O)C1CCN(C(=O)Nc2cc(Oc3ccc(F)cc3)cc(Oc3ccc(S(C)(=O)=O)cc3)c2)CC1 [TZ57-063] | > 1000 |
| CC(C)C(O)C1CCN(C(=O)Nc2cc(Oc3ccc(F)cc3)cc(Oc3ccc(S(C)(=O)=O)cc3)c2)CC1 (stereo not drawn) [TZ57-065] | > 1000 |
| CCC(CC)CC1(O)CCN(C(=O)Nc2cc(Oc3ccc(F)cc3)cc(OC3CCN(C(C)=O)CC3)c2)CC1 [TZ57-080] | > 1000 |
| CCC(CC)CC1(O)CCN(C(=O)Nc2cc(Oc3ccc(F)cc3)cc(OC3CCN(S(C)(=O)=O)CC3)c2)CC1 [TZ57-081] | 292 ± 121 |
| CS(=O)(=O)c1ccc(Oc2cc(NC(=O)N3CC[C@@]4(O)CCCC[C@H]4C3)cc(Oc3ccc(F)cc3)c2)cc1 [TZ57-091] | > 1000 |
| CNC(=O)c1ccc(Oc2cc(NC(=O)N3CC[C@@]4(O)CCCC[C@H]4C3)cc(Oc3ccc(F)cc3)c2)cc1 [TZ57-096] | > 1000 |
| CCC(CC)CC1(O)CCN(C(=O)Nc2ccc(Oc3ccc(F)cc3)cc2)CC1 [TZ57-103] | > 1000 |
| CCC(CC)CC1(O)CCN(C(=O)Nc2ccc(Oc3ccc(S(C)(=O)=O)cc3)cc2)CC1 [TZ57-104] | > 1000 |
| CC(C)CC1(O)CCN(C(=O)Nc2ccc(NC(=O)N3CCC(O)(CC(C)C)CC3)cc2)CC1 [TZ57-112] | > 1000 |
| CC(C)CC1(O)CCN(C(=O)Nc2cccc(NC(=O)N3CCC(O)(CC(C)C)CC3)c2)CC1 [TZ57-115] | > 1000 |
| CC(C)CC1(O)CN(C(=O)Nc2cc(Oc3ccc(F)cc3)cc(Oc3ccc(S(C)(=O)=O)cc3)c2)C1 [TZ57-119] | > 1000 |
| CC(C)CC1(O)CCN(C(=O)Nc2cc(Oc3ccc(F)cc3)cc(Oc3ccc(S(C)(=O)=O)cc3)c2)C1 (stereo not drawn) [TZ57-120] | 122 ± 29 |
| CC(C)CC1(O)CC(C(=O)Nc2cc(Oc3ccc(F)cc3)cc(Oc3ccc(S(C)(=O)=O)cc3)c2)C1 (stereo not drawn) [TZ57-121] | 654 ± 349 |
| CNC(=O)c1ccc(Oc2cc(NC(=O)N3CCC(O)(CC(C)C)C3)cc(Oc3ccc(F)cc3)c2)cc1 (stereo not drawn) [TZ57-122] | 77 ± 16 |
| CCC(CC)CC1(O)CCN(C(=O)Nc2cc(Oc3ccc(B4OC(C)(C)C(C)(C)O4)cc3)cc(Sc3ccc(S(C)(=O)=O)cc3)c2)CC1 [TZ57-150] | > 1000 |
| CCC(CC)CC1(O)CCN(C(=O)Nc2cc(Oc3ccc(S(C)(=O)=O)cc3)cc(Sc3ccc(F)cc3)c2)CC1 [TZ57-155] | 143 ± 30 |
| CCC(CC)CC1(O)CCN(C(=O)Nc2cc(Sc3ccc(F)cc3)cc(Sc3ccc(S(C)(=O)=O)cc3)c2)CC1 [TZ57-158] | 67 ± 10 |

| Structure (SMILES) | IC50 [nM] |
| --- | --- |
| CCC(CC)CC1(O)CCN(C(=O)Nc2cc(C)cc(Oc3ccc(S(C)(=O)=O)cc3)c2)CC1 [TZ59-008] | > 1000 |
| CCC(CC)CC1(O)CCN(C(=O)Nc2cc(C#N)cc(Oc3ccc(S(C)(=O)=O)cc3)c2)CC1 [TZ59-014] | > 1000 |
| CCC(CC)CC1(O)CCN(C(=O)Nc2cc(C(C)C)c3c(C)nn(C)c3n2)CC1 [TZ59-023] | > 1000 |
| CCC(CC)CC1(O)CCN(C(=O)Nc2cc(NC(=O)N3CCC(O)(CC(CC)CC)CC3)cc(C(F)(F)F)c2)CC1 [TZ59-039] | > 1000 |
| CCC(CC)CC1(O)CCN(C(=O)Nc2cc(F)cc(C(F)(F)F)c2)CC1 [TZ59-042] | > 1000 |
| CCC(CC)CC1(O)CCN(C(=O)Nc2cc(OCCF)cc(C(F)(F)F)c2)CC1 [TZ59-044] | > 1000 |
| CCC(CC)CC1(O)CCN(C(=O)Nc2cc(OC)cc(C(F)(F)F)c2)CC1 [TZ59-046] | > 1000 |
| CCC(CC)CC1(O)CCN(C(=O)Nc2cc(N(C(=O)OC(C)(C)C)c3ccc(S(C)(=O)=O)cc3)cc(C(F)(F)F)c2)CC1 [TZ59-061] | > 1000 |
| CCC(CC)CC1(O)CCN(C(=O)Nc2cc(Nc3ccc(S(C)(=O)=O)cc3)cc(C(F)(F)F)c2)CC1 [TZ59-062] | > 1000 |
| CCC(CC)CC1(O)CCN(C(=O)Nc2cc(F)cc(C(O)c3ccc(S(C)(=O)=O)cc3)c2)CC1 (stereo not drawn) [TZ59-080] | > 1000 |
| CCC(CC)CC1(O)CCN(C(=O)Nc2cc(C(=O)c3ccc(C(=O)NC)cc3)cc(C(F)(F)F)c2)CC1 [TZ59-089] | > 1000 |
| CCC(CC)CC1(O)CCN(C(=O)Nc2cc(C(=O)c3ccc(S(C)(=O)=O)cc3)cc(C(F)(F)F)c2)CC1 [TZ59-092] | 700 ± 111 |
| CCC(CC)CC1(O)CCN(C(=O)Nc2cc(C(=O)c3ccc(S(C)(=O)=O)cc3)cc(C(F)(F)F)c2)CC1 [TZ59-093] | > 1000 |
| COc1ccc(-n2c(=O)c3ccccc3n(CC(=O)Nc3cc(Cl)c(OC)cc3OC)c2=O)cc1 [TZ59-110] | > 1000 |
| COc1cc(OC)c(NC(=O)Cn2c(=O)n(CC(=O)Nc3cc(Cl)nc(Cl)c3)c(=O)c3ccccc32)cc1Cl [TZ59-112, N-(5-Chloro-2,4-dimethoxyphenyl)-2-(3-(2-((2,6-dichloropyridin-4-yl)amino)-2-oxoethyl)-2,4-dioxo-3,4-dihydroquinazolin-1(2H)-yl)acetamide] | > 1000 |
| COc1cc(OC)c(NC(=O)Cn2c(=O)n(CC(=O)Nc3ccc(O)cc3)c(=O)c3ccccc32)cc1Cl [TZ59-124, N-(5-Chloro-2,4-dimethoxyphenyl)-2-(3-(2-((4-hydroxyphenyl)amino)-2-oxoethyl)-2,4-dioxo-3,4-dihydroquinazolin-1(2H)-yl)acetamide] | 2.6 ± 0.3 |
| COc1cc(OC)c(NC(=O)Cn2c(=O)n(CC(=O)NCCO)c(=O)c3ccccc32)cc1Cl [TZ59-130, N-(5-Chloro-2,4-dimethoxyphenyl)-2-(3-(2-((2-hydroxyethyl)amino)-2-oxoethyl)-2,4-dioxo-3,4-dihydroquinazolin-1(2H)-yl)acetamide] | 66.6 ± 10.3 |
| COc1cccc(NC(=O)Cn2c(=O)c3ccccc3n(CC(=O)Nc3cc(Cl)c(OC)cc3OC)c2=O)c1 [TZ59-131, N-(5-Chloro-2,4-dimethoxyphenyl)-2-(3-(2-((3-methoxyphenyl)amino)-2-oxoethyl)-2,4-dioxo-3,4-dihydroquinazolin-1(2H)-yl)acetamide] | 39.1 ± 7 |
| COc1cc(OC)c(NC(=O)Cn2c(=O)n(CC(=O)NCCOCCO)c(=O)c3ccccc32)cc1Cl [TZ59-132, N-(5-Chloro-2,4-dimethoxyphenyl)-2-(3-(2-((2-(2-hydroxyethoxy)ethyl)amino)-2-oxoethyl)-2,4-dioxo-3,4-dihydroquinazolin-1(2H)-yl)acetamide] | 91.4 ± 17.6 |
| COc1cc(OC)c(NC(=O)Cn2c(=O)n(CC(=O)NCCOCCOCCO)c(=O)c3ccccc32)cc1Cl [TZ59-133, N-(5-Chloro-2,4-dimethoxyphenyl)-2-(3-(2-((2-(2-(2-hydroxyethoxy)ethoxy)ethyl)amino)-2-oxoethyl)-2,4-dioxo-3,4-dihydroquinazolin-1(2H)-yl)acetamide] | 204 ± 96 |
| CNC(=O)Cn1c(=O)c2ccccc2n(CC(=O)Nc2cc(Cl)c(OC)cc2OC)c1=O [TZ59-135, N-(5-Chloro-2,4-dimethoxyphenyl)-2-(3-(2-(methylamino)-2-oxoethyl)-2,4-dioxo-3,4-dihydroquinazolin-1(2H)-yl)acetamide] | 376 ± 91 |

| Structure (SMILES) | IC50 [nM] |
| --- | --- |
| COc1cc(OC)c(NC(=O)Cn2c(=O)n(CC(=O)N(C)C)c(=O)c3ccccc32)cc1Cl [TZ59-136, 2-(1-(2-((5-Chloro-2,4-dimethoxyphenyl)amino)-2-oxoethyl)-2,4-dioxo-1,4-dihydroquinazolin-3(2H)-yl)-N,N-dimethylacetamide] | 175 ± 13 |
| COc1ccccc1NC(=O)Cn1c(=O)[nH]c2ccccc2c1=O [TZ62-004] | > 1000 |
| COc1cc(OC)c(NC(=O)Cn2c(=O)n(CC(=O)NCCO)c(=O)c3ccccc32)cc1Cl [TZ62-007] | > 1000 |
| COc1ccccc1NC(=O)Cn1c(=O)c2ccccc2n(CC(=O)Nc2cc(Cl)ccc2OC)c1=O [TZ62-008] | 54.9 ± 6 |
| COc1ccccc1NC(=O)Cn1c(=O)c2ccccc2n(Cc2ccc(F)cc2)c1=O [TZ62-014] | > 1000 |
| COc1ccccc1NC(=O)Cn1c(=O)c2ccccc2n(CC(=O)c2ccc(F)cc2)c1=O [TZ62-016] | > 1000 |
| COc1cc(OC)c(NC(=O)CN2C(=O)N(CC(=O)O)Cc3ccccc32)cc1Cl [TZ62-017] | > 1000 |
| COc1cc(OC)c(NC(=O)CN2C(=O)N(CC(=O)Nc3ccccc3OC)Cc3ccccc32)cc1Cl [TZ62-018] | > 1000 |
| COc1ccc(C(=O)Cn2c(=O)n(CC(=O)Nc3ccccc3OC)c(=O)c3ccccc32)cc1 [TZ62-019] | > 1000 |
| COc1ccccc1NC(=O)Cn1c(=O)c2ccccc2n(CC(=O)c2ccccc2OC)c1=O [TZ62-020] | > 1000 |
| COc1ccc(C(=O)Cn2c(=O)n(CC(=O)Nc3ccccc3OC)c(=O)c3ccccc32)cc1Cl [TZ62-026] | 287 ± 69 |
| CCOc1ccc(C(=O)Cn2c(=O)n(CCCC(=O)NC3CCCC3)c(=O)c3cc(Cl)ccc32)cc1Cl [TZ62-038] | 293 ± 69 |
| COc1ccc(C(=O)Cn2c(=O)n(CCCC(=O)NC3CCCC3)c(=O)c3cc(Cl)ccc32)cc1Cl [TZ62-039] | > 1000 |
| CCOc1ccc(C(=O)Cn2c(=O)n(CCCC(=O)NC3CCCC3)c(=O)c3ccccc32)cc1Cl [TZ62-048] | 85 ± 10 |
| COc1ccc(C(=O)Cn2c(=O)n(CCCC(=O)NC3CCCC3)c(=O)c3ccccc32)cc1Cl [TZ62-049] | 396 ± 78 |
| CCOc1ccc(C(=O)Cn2c(=O)n(CCCC(=O)N3CCCC3)c(=O)c3ccccc32)cc1Cl [TZ62-050] | > 1000 |
| COc1ccc(C(=O)Cn2c(=O)n(CCCC(=O)N3CCCC3)c(=O)c3ccccc32)cc1Cl [TZ62-051] | > 1000 |
| CCOc1ccc(C(=O)Cn2c(=O)n(CCCC(=O)N3CCCC3)c(=O)c3cc(Cl)ccc32)cc1Cl [TZ62-052] | > 1000 |
| COc1ccc(C(=O)Cn2c(=O)n(CCCC(=O)N3CCCC3)c(=O)c3cc(Cl)ccc32)cc1Cl [TZ62-053] | > 1000 |
| COc1cc(OC)c(NC(=O)Cn2c(=O)n(Cc3ccccc3)c(=O)c3ccccc32)cc1Cl [TZ62-077] | > 1000 |
| COc1cc(OC)c(NC(=O)Cn2c(=O)n(CCO)c(=O)c3ccccc32)cc1Cl [TZ62-082] | > 1000 |
